Structures are written as SMILES.

The subject of the first assay is Jurkat FADD (−/−) Cells. In words: TNF-α induced necroptosis of Jurkat FADD-deficient cells (CellTiter-Glo cell survival). Format: cell-based, human. As to conditions: Homo sapiens, Jurkat, 13 h. The gist of the method:
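Cells in RPMI 1640 with 10% FBS were pretreated for 1 h at 37 °C with compound (12-point threefold series from 25 μM, or 0.5 μM, in triplicate). They were then stimulated with TNFα added as a 5 ng/mL solution for 13 h. Survival was read by luminescence.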
For orientation: In ATP-based viability assays light output follows the ATP content of the culture.
As for `CN1C(=O)C(NC(=O)c2nnc(Cc3ccccc3)[nH]2)Cc2cn(CCN3CCOCC3)c3cccc1c23` (racemic) [T-38, (±)-5-benzyl-N-(1-methyl-6-(2-morpholinoethyl)-2-oxo-2,3,4,6-tetrahydro-1H-azacyclo [4,3,2-cd]indol-3-yl)-4H-1,2,4-triazole-3-carboxamide], the half-inhibitory concentration (IC50) is below 0.01 µM.

The same assay, now with this note: Homo sapiens; TNF-α induced necroptosis, Jurkat FADD-deficient cells, 13 hours, CellTiter-Glo; read-out: IC50.
As to `CN1C(=O)C(NC(=O)c2nnc(Cc3ccccc3)[nH]2)Cc2cn(C(=O)C(C)(C)C)c3cccc1c23` (racemic) [T-39, (±)-5-benzyl-N-(1-methyl-2-oxo-6-pivaloyl-2,3,4,6-tetrahydro-1H-azacyclo [4,3,2-cd]indol-3-yl)-4H-1,2,4-triazole-3-carboxamide], the IC50 fell in the range of 0.01 to 0.1 µM. Still for that read-out and setting: under `CN1C(=O)C(NC(=O)c2ncc(Cc3ccccc3)o2)Cn2cc(-c3ccnn3C)c3cccc1c32` (racemic) [T-83, (±)-5-benzyl-N-(1-methyl-7-(1-methyl-1H-pyrazol-5-yl)-2-oxo-1,2,3,4-tetrahydro-[1,4]diazepino[3,2,1-hi]indol-3-yl)-oxazole-2-carboxamide] stands below 0.01 µM. The same measure, in the same setting: in the case of `CN1C(=O)C(NC(=O)c2nnc(Cc3ccccc3)[nH]2)Cc2c[nH]c3ccnc1c23` (racemic) [T-129, (±)-5-benzyl-N-(6-methyl-7-oxo-6,7,8,9-tetrahydro-2H-2,5,6-triazabenzene[cd]azulene-8-yl)-4H-1,2,4-triazol-3-carboxamide] it was 0.1 to 1 µM; in that of `CN1C(=O)C(NC(=O)c2ncc(Cc3ccccc3)o2)Cc2cn(-c3ncccc3C(F)(F)F)c3cccc1c23` (racemic) [T-63, (±)-5-benzyl-N-(1-methyl-2-oxo-6-(3-(trifluoromethyl)pyridin-2-yl)-2,3,4,6-tetrahydro-1H-azacyclo [4,3,2-cd]indol-3-yl) oxazole-2-carboxamide], below 0.01 µM; in that of `CN1C(=O)C(NC(=O)c2nnc(Cc3ccccc3)[nH]2)Cc2cn(-c3ncccc3SC(F)(F)F)c3cccc1c23` (racemic) [T-111, (±)-5-benzyl-N-(1-methyl-2-oxo-6-(3-((trifluoromethyl)thio)pyridin-2-yl)-2,3,4,6-tetrahydro-1H-aza [4,3,2-cd]indol-3-yl)-4H-1,2,4-triazole-3-carboxamide], below 0.01 µM. Still for that read-out and setting: under `CN1C(=O)C(NC(=O)c2nnc(Cc3ccccc3)[nH]2)Cc2cn(-c3ncccc3CF)c3cccc1c23` (racemic) [T-54, (±)-5-benzyl-N-(6-(3-(fluoromethyl)pyridin-2-yl)-1-methyl-2-oxo-2,3,4,6-tetrahydro-1H-azacyclo [4,3,2-cd]indol-3-yl)-4H-1,2,4-triazole-3-carboxamide] stands below 0.01 µM; under `CN1C(=O)C(NC(=O)c2nnc(Cc3ccccc3)[nH]2)Cc2cn(-c3cccnn3)c3cccc1c23` (racemic) [T-106, (±)-5-benzyl-N-(1-methyl-2-oxo-6-(pyridazin-3-yl)-2,3,4,6-tetrahydro-1H-aza [4,3,2-cd]indol-3-yl)-4H-1,2,4-triazole-3-carboxamide], 0.1 to 1 µM; under `CN1C(=O)C(NC(=O)c2nnc(Cc3ccccc3)[nH]2)Cc2cn(C)c3cccc1c23` (racemic) [T-20, (±)-5-benzyl-N-(1,6-dimethyl-2-oxo-2,3,4,6-tetrahydro-1H-azacyclo [4,3,2-cd]indol-3-yl)-4H-1,2,4-triazole-3-carboxamide], 0.01 to 0.1 µM. For `Cc1ccsc1-c1cn2c3c(cccc13)N(C)C(=O)C(NC(=O)c1nnc(Cc3ccccc3)[nH]1)C2` (racemic) [T-91, (±)-5-benzyl-N-(1-methyl-7-(3-methylthiophen-2-yl)-2-oxo-1,2,3,4-tetrahydro-[1,4]diazepine [3,2,1-hi]indol-3-yl)-4H-1,2,4-triazole-3-carboxamide], the IC50 was in the range of 0.01 to 0.1 µM. Same read-out and setting: under `CC(C)n1nccc1-c1cn2c3c(cccc13)N(C)C(=O)C(NC(=O)c1nnc(Cc3ccccc3)[nH]1)C2` (racemic) [T-90, (±)-5-benzyl-N-(7-(1-isopropyl-1H-pyrazol-5-yl)-1-methyl-2-oxo-1,2,3,4-tetrahydro-1,4-diazepine [3,2,1-hi]indol-3-yl)-4H-1,2,4-triazole-3-carboxamide] stands below 0.01 µM.

As usually defined, the IC50 is the concentration needed to halve the response being measured.

Values taken from patent publication US20250049812A1, “Compounds that Inhibit Necroptosis and Their Preparation Methods” (SHANGHAI INSTITUTE OF ORGANIC CHEMISTRY, CHINESE ACADEMY OF …, priority 2021, published 2025).
